Results on two compounds are retold here after patent US20040219214A1, “Tissue reactive compounds and compositions and uses thereof” (Angiotech International AG, priority 2002, published 2004).

The test system of assay [1] is TNFα production by THP-1 cells. The assay is described as follows: TNF-alpha production by macrophages (ELISA). The format is cell-based, human. The note with it: opsonized zymosan stimulation, 24 hours; average of n=4 experiments. On the procedure: The human macrophage cell line, THP-1 is plated in a 12 well plate such that each well contains 1×10^6 cells in 2 mL of media containing 10% FCS. Opsonized zymosan is prepared by resuspending 20 mg of zymosan A in 2 mL of ddH2O and homogenizing until a uniform suspension is obtained. Homogenized zymosan is pelleted at 250 g and resuspended in 4 mL of human serum for a final concentration of 5 mg/mL. and incubated in a 37° C. water bath for 20 minutes to enable opsonization. Bay 11-7082 is prepared in DMSO at a concentration of 10^−2 M and serially diluted 10-fold to give a range of stock concentrations (10^−8 M to 10^−2 M) (J. Immunol. (2000) 165: 411-418; J. Immunol. (2000) 164: 4804-4811; J. Immunol Meth. (2000) 235 (1-2): 33-40).
THP-1 cells are stimulated to produce TNFα by the addition of 1 mg/mL opsonized zymosan. […]
After a 24 hour stimulation, supernatants are collected to quantify TNFα production. TNFα concentrations in the supernatants are determined by ELISA using recombinant human TNFα to obtain a standard curve. […] The dilution of Capture Antibody used is lot-specific and is determined empirically. […] Stop Solution (2 N H2SO4) is then added to the wells and a yellow colour reaction is read at 450 nm with A correction at 570 nm. Mean absorbance is determined from triplicate data readings and the mean background is subtracted. […]
For orientation: In an ELISA, binding on a coated surface is turned into a signal by an enzyme label.

For a further assay, the system named is human fibroblasts. The assay is described as follows: Screening assay for effect on cell proliferation (CYQUANT). The note with it: Fibroblast, 72 hours incubation, average of n=4 experiments. Type of assay: cell-based. On the procedure: Fibroblasts at 70-90% confluency are trypsinized, replated at 600 cells/well in media in 96-well plates and allowed to attachment overnight. Mitoxantrone is prepared in DMSO at a concentration of […] and diluted 10-fold to give a range of stock concentrations (10^−8 M to 10^−2 M). Drug dilutions are diluted 1/1000 in media and added to cells to give a total volume of 200 μL/well. Each drug concentration is tested in triplicate wells. Plates containing fibroblasts and mitoxantrone are incubated at 37° C. for 72 hours (In vitro toxicol. (1990) 3: 219; Biotech. Histochem. (1993) 68: 29; Anal. Biochem. (1993)213: 426).
To terminate the assay, the media is removed by gentle aspiration. A 1/400 dilution of CYQUANT 400× GR dye indicator (Molecular Probes; Eugene, Oreg.) is added to 1× Cell Lysis buffer, and 200 μL of the mixture is added to the wells of the plate. Plates are incubated at room temperature, protected from light for 3-5 minutes. Fluorescence is read in a fluorescence microplate reader at ˜480 nm excitation wavelength and ˜520 nm emission maxima. Inhibitory concentration of 50% (IC50) is determined by taking the average of triplicate wells and comparing average relative fluorescence units to the DMSO control. An average of n=4 replicate experiments is used to determine IC50 values. (IC50=20 nM for proliferation of human fibroblasts).

The subject of assay [2] is nitric oxide production in RAW 264.7 cells. The assay is described as follows: Nitric oxide production by macrophages (Greiss assay). Type of assay: cell-based, murine. The note with it: Mus musculus, RAW264.7; IFNγ and LPS stimulation, 24 hours; average of n=4 experiments. On the procedure: The murine macrophage cell line RAW 264.7 is trypsinized to remove cells from flasks and plated in individual wells of a 6-well plate. Approximately 2×10^6 cells are plated in 2 mL of media containing 5% heat-inactivated fetal bovine serum (FBS). RAW 264.7 cells are incubated at 37° C. for 1.5 hours to allow adherence to plastic. Mitoxantrone is prepared in DMSO at a concentration of 10^−2 M and serially diluted 10-fold to give a range of stock concentrations (10^−8 M to 10^−2 M). Media is then removed and cells are incubated in 1 ng/mL of recombinant murine IFNγ and 5 ng/mL of LPS with or without mitoxantrone in fresh media containing 5% FBS. Mitoxantrone is added to cells by directly adding mitoxantrone DMSO stock solutions, prepared earlier, at a 1/1000 dilution, to each well. Plates containing IFNγ, LPS plus or minus mitoxantrone are incubated at 37° C. for 24 hours (Chem. Ber. (1879) 12: 426; J. AOAC (1977) 60-594; Ann. Rev. Biochem. (1994) 63: 175).
At the end of the 24 hour period, supernatants are collected from the cells and assayed for the production of nitrites. […] Optical density is read immediately on microplate spectrophotometer at 562 nm absorbance. Absorbance over triplicate wells is averaged after subtracting background and concentration values are obtained from the nitrite standard curve (1 μM to 2 mM). […]

On to `Cc1ccc(S(=O)(=O)/C=C/C#N)cc1` [Bay 11-7082], for which, in assay [1], half-maximal inhibition (IC50) required 810 nM.

For `O=C1c2c(O)ccc(O)c2C(=O)c2c(NCCNCCO)ccc(NCCNCCO)c21` [Mitoxantrone, 9,10-Anthracenedione, 1,4-dihydroxy-5,8-bis((2-((2-hydroxyethyl)amino]ethyl]amino]-], the IC50 with human fibroblasts was 20 nM; in assay [2], 927 nM.

As usually defined, the IC50 is the concentration needed to halve the response being measured. Low readings indicate inhibition by little substance, high ones a need for much substance.
